Source: patent US20050009776A1, “Method of treating atrial fibrillation or atrial flutter” (Aderis Pharmaceuticals, Inc., priority 2003, published 2005)

Tests used:
[1] = Example 2: safety (adverse events, blood pressure, clinical laboratory values); format: in vivo, human; settings: for Diastolic BP Change from Baseline Post-treatment / Diastolic BP Change from Baseline Treatment / Systolic BP Change from Baseline Post-treatment / Systolic BP Change from Baseline Treatment: mean ± SD
Description: Each patient received 1 of 6 doses of DTI-0009 (0.25, 1.0, 2.5, 4.0, 10.0, or 25.0 μg/kg) diluted in normal saline or normal saline only (control). Study drug was administered as a 30-minute i.v. infusion at a rate of 1 mL/minute. Patients were enrolled in sequential dose groups, beginning with the lowest active dose group and continuing in increasing dose order; the final group received normal saline. The decision to proceed to the next highest dose group was based on the safety response in the previous dose group.
Electrophysiologic (EP), electrocardiogram (ECG), blood pressure measurements, and blood collection for clinical laboratory measurements were performed at baseline (−10 to 0 minutes), during treatment (between 20 and 30 minutes), and at 10 minutes post-treatment.
ECG measurements included PR interval, QRS complex duration, and QT interval. Efficacy was based on changes in EP and ECG parameters from baseline to the treatment period and to post treatment. Safety was based on the incidence of adverse events, blood pressure measurements, and clinical laboratory values.
The incidence of adverse events, blood pressure measurements, and clinical laboratory results were summarized by dose group. Adverse events were coded using the medical dictionary for regulatory activities (MedDRA version 3.0). Safety analyses included all patients who received any duration of study drug infusion.

[2] = system: atrioventricular (AV) node; experiment: Example 3: Phase I dose escalation, effects on AV node function; format: in vivo, human
Description: This study for determining the effects of DTI-0009 on atrioventricular (AV) node function enrolled 63 patients (19 women and 44 men; mean age 54) who were scheduled for a procedure other than AV node or slow pathway ablation. All patients had no greater than a first degree AV block and AV node Wenckebach Cycle Length of less than 500 msec. […] The study was a Phase I, multi-center, open-label, sequential dose escalation using DTI-0009 (0.25 μg/kg, 1.0 μg/kg, 2.5 μg/kg, 4.0 μg/kg, 10.0 μg/kg, and 25.0 μg/kg) or normal saline. Electrophysiologic studies (EPS) were performed at baseline, during infusion (20-30 min) and 10 minutes after discontinuation of DTI-0009 administration.

[3] = system: A1 receptor / A3 receptor; experiment: Affinity for adenosine A1 receptor relative to A3 receptor; format: binding
Source text: Therefore, DTI-0009 may be capable of terminating episodes of supraventricular arrythymias at doses that have little effect on normal heart rate or blood pressure.

CCNC(=O)[C@H]1O[C@@H](n2cnc3c(NC4CCCC4)ncnc32)[C@H](O)[C@@H]1O [DTI-0009, N^6-cyclopentyl-5′-(N-ethyl)carboxamidoadenosine]
Incidence of Adverse Events: Groin pain/swelling ([1]; 4.0 μg/kg (n = 10)): 0 | Diastolic BP Change from Baseline Post-treatment ([1]; 4.0 μg/kg): 0.6 ± 10.5 mmHg | Diastolic BP Change from Baseline Treatment ([1]; 4.0 μg/kg): 3.3 ± 8.4 mmHg | Systolic BP Change from Baseline Post-treatment ([1]; 4.0 μg/kg): 5.2 ± 10.2 mmHg | Systolic BP Change from Baseline Treatment ([1]; 4.0 μg/kg): 3.8 ± 8.4 mmHg | Adverse Events Related to Study Drug: Cardiac Disorders (all) ([1]; 10.0 μg/kg (n = 12)): 6 (50%) | Adverse Events Related to Study Drug: General Disorders (all) ([1]; 10.0 μg/kg (n = 12)): 1 (8%) | Incidence of Adverse Events Related to Study Drug ([1]; 10.0 μg/kg (n = 12)): 7 (58%) | Incidence of Adverse Events: Any Adverse Event ([1]; 10.0 μg/kg (n = 12)): 8 (67%) | Incidence of Adverse Events: Atrial fibrillation ([1]; 10.0 μg/kg (n = 12)): 3 (25%) | Incidence of Adverse Events: Atrial flutter ([1]; 10.0 μg/kg (n = 12)): 1 (8%) | Incidence of Adverse Events: Atrial tachycardia ([1]; 10.0 μg/kg (n = 12)): 0 | Incidence of Adverse Events: Bradycardia ([1]; 10.0 μg/kg (n = 12)): 1 (8%) | Incidence of Adverse Events: Cardiac Disorders ([1]; 10.0 μg/kg (n = 12)): 6 (50%) | Incidence of Adverse Events: Chest pain/tightness ([1]; 10.0 μg/kg (n = 12)): 1 (8%) | Incidence of Adverse Events: Conduction disorders ([1]; 10.0 μg/kg (n = 12)): 1 (8%) | Incidence of Adverse Events: General Disorders ([1]; 10.0 μg/kg (n = 12)): 2 (17%) | Incidence of Adverse Events: Groin pain/swelling ([1]; 10.0 μg/kg (n = 12)): 0 | patients with severe adverse events ([1]; 10.0 μg/kg group): 1 patient | Diastolic BP Change from Baseline Post-treatment ([1]; 10.0 μg/kg): −7.2 ± 16.8 mmHg | Diastolic BP Change from Baseline Treatment ([1]; 10.0 μg/kg): −3.2 ± 11.2 mmHg | Systolic BP Change from Baseline Post-treatment ([1]; 10.0 μg/kg): −12.6 ± 20.4 mmHg | Systolic BP Change from Baseline Treatment ([1]; 10.0 μg/kg): −3.2 ± 13.5 mmHg | Adverse Events Related to Study Drug: Cardiac Disorders (all) ([1]; 25.0 μg/kg (n = 3)): 2 (66.7%) | Adverse Events Related to Study Drug: General Disorders (all) ([1]; 25.0 μg/kg (n = 3)): 3 (100%) | Incidence of Adverse Events Related to Study Drug ([1]; 25.0 μg/kg (n = 3)): 3 (100%) | Incidence of Adverse Events: Any Adverse Event ([1]; 25.0 μg/kg (n = 3)): 3 (100%) | Incidence of Adverse Events: Atrial fibrillation ([1]; 25.0 μg/kg (n = 3)): 1 (33%) | Incidence of Adverse Events: Atrial flutter ([1]; 25.0 μg/kg (n = 3)): 0 | Incidence of Adverse Events: Atrial tachycardia ([1]; 25.0 μg/kg (n = 3)): 1 (33%) | Incidence of Adverse Events: Bradycardia ([1]; 25.0 μg/kg (n = 3)): 1 (33%) | Incidence of Adverse Events: Cardiac Disorders ([1]; 25.0 μg/kg (n = 3)): 2 (66.7%) | Incidence of Adverse Events: Chest pain/tightness ([1]; 25.0 μg/kg (n = 3)): 3 (100%) | Incidence of Adverse Events: Conduction disorders ([1]; 25.0 μg/kg (n = 3)): 0 | Incidence of Adverse Events: General Disorders ([1]; 25.0 μg/kg (n = 3)): 3 (100%) | Incidence of Adverse Events: Groin pain/swelling ([1]; 25.0 μg/kg (n = 3)): 0 | patients with severe adverse events ([1]; 25.0 μg/kg group): 2 patients | patients who did not complete study drug infusion due to adverse events ([1]; 25.0 μg/kg group, chest pain, severe chest pain, chest tightness and atrial fibrillation): Three patients | Diastolic BP Change from Baseline Post-treatment ([1]; 25.0 μg/kg): 1.0 ± 8.0 mmHg | Diastolic BP Change from Baseline Treatment ([1]; 25.0 μg/kg): 7.5 ± 2.1 mmHg | Systolic BP Change from Baseline Post-treatment ([1]; 25.0 μg/kg): 6.7 ± 8.1 mmHg | Systolic BP Change from Baseline Treatment ([1]; 25.0 μg/kg): 23.0 ± 2.8 mmHg | changes in blood pressure or clinical laboratory values ([1]; any patient during the study): no clinically significant changes | AERP Change from Baseline ([2]; 4.0 μg/kg (n = 9), ns): +10 msec (ns) | AH Interval Change from Baseline ([2]; 4.0 μg/kg (n = 9), ns): +9 msec (ns) | AVNERP Change from Baseline ([2]; 4.0 μg/kg (n = 9), ns): +73 msec (ns) | Wenkebach Cycle Length Change from Baseline ([2]; 4.0 μg/kg (n = 9), ns): +60 msec (ns) | HR at 250 msec pacing Change from Baseline ([2]; 4.0 μg/kg (n = 9), p = 0.008): −49 bpm | AVNERP Change from Baseline ([2]; 10.0 μg/kg (n = 8), p = 0.001): +248 msec | HR at 250 msec pacing Change from Baseline ([2]; 10.0 μg/kg (n = 8), p = 0.001): −51 bpm | Wenkebach Cycle Length Change from Baseline ([2]; 10.0 μg/kg (n = 8), p = 0.001): +198 msec | AH Interval Change from Baseline ([2]; 10.0 μg/kg (n = 8), p = 0.004): +24 msec | AERP Change from Baseline ([2]; 10.0 μg/kg (n = 8), p = 0.035): -14 ms | complete heart block ([2]; 10.0 μg/kg dose): occurred in one patient | AERP Change from Baseline ([2]; 25.0 μg/kg (n = 2), ns): +10 msec (ns) | AH Interval Change from Baseline ([2]; 25.0 μg/kg (n = 2), ns): +14 msec (ns) | HR at 250 msec pacing Change from Baseline ([2]; 25.0 μg/kg (n = 2), p = 0.004): −45 bpm | AVNERP Change from Baseline ([2]; 25.0 μg/kg (n = 2), p = 0.013): +185 msec | Wenkebach Cycle Length Change from Baseline ([2]; 25.0 μg/kg (n = 2), p = 0.035): +140 msec | transient, severe, non-ischemic chest pain reported as serious adverse events ([2]; 25.0 μg/kg, three patients dosed): two of these patients | effects on AV node variables at low doses ([2]; doses up to 2.5 μg/kg): negligible effects | tolerability ([2]; up to a dose of 10.0 μg/kg): well tolerated | affinity for the A1 receptor higher than for the A3 receptor [3]: 11 fold
